Laboratory results taken from EP3072956A1, “Selective culture medium for polymyxin-resistant, gram-negative bacteria” (priority 2015, dated 2016).

Key:
Experiment in all cases: MIC determination by broth microdilution (MHB-CA, CLSI)
Format in all cases: cell-based
E. cloacae = test system: E. cloacae
Experimental: (§1) Determination of MIC values were performed by broth microdilution in Cation-Adjusted Mueller-Hinton broth (MHB-CA) according to the CLSI guidelines (Clinical and Laboratory Standards Institute). Polymyxin B and colistin (Sigma-Aldrich, Saint-Louis) were tested with or without Tween 80 over a range dilution from 0.12 to 128 µg/ml. The surfactant Tween 80, at a final concentration of 0.002%, prevents the binding of polymyxins to multi-array plastic panel. Actually, the use of Tween for determination of MIC of polymyxins is still debatable. MHB-CA broth and 5.10^5 CFU/ml of each tested strain were distributed in each well. Following the EUCAST breakpoints, strains were characterized as susceptible or resistant to polymyxins.

S. maltophilia = test system: S. maltophilia
Experimental: as §1

A. baumannii = test system: A. baumannii
Experimental: as §1

S. marcescens = conditions: strain Smar
Experimental: as §1

C. freundii = test system: C. freundii
Experimental: as §1

P. stuartii = conditions: strain Pstu
Experimental: as §1

E. coli = test system: E. coli
Experimental: as §1

H. alvei = conditions: strain ER
Experimental: as §1

K. pneumoniae = test system: K. pneumoniae
Experimental: as §1

K. oxytoca = conditions: strain C24
Experimental: as §1

E. aerogenes = conditions: strain 36F8
Experimental: as §1

P. aeruginosa = test system: P. aeruginosa
Experimental: as §1

P. mirabilis = conditions: strain Pmir
Experimental: as §1

Measured: MIC

polymyxin B
2 µg/mL: E. coli; strain 28509, With Tween80 | E. coli; strain 28509, Without Tween80
128 µg/mL: A. baumannii; strain Aba6, With Tween80 | A. baumannii; strain Aba6, Without Tween80 | K. pneumoniae; strain 75b, With Tween80 | K. pneumoniae; strain 75b, Without Tween80 | K. pneumoniae; strain BICb, With Tween80 | K. pneumoniae; strain BICb, Without Tween80 | K. pneumoniae; strain C1, Without Tween80 | K. pneumoniae; strain C11, Without Tween80 | K. pneumoniae; strain C12, Without Tween80 | K. pneumoniae; strain C21, With Tween80 | K. pneumoniae; strain C21, Without Tween80 | K. pneumoniae; strain C26, With Tween80 | K. pneumoniae; strain C26, Without Tween80
>128 µg/mL: E. cloacae; strain HM, With Tween80 | E. cloacae; strain HM, Without Tween80 | S. maltophilia; strain Sm2, With Tween80 | S. maltophilia; strain Sm2, Without Tween80 | S. marcescens; With Tween80 | S. marcescens; Without Tween80 | P. stuartii; With Tween80 | P. stuartii; Without Tween80 | K. pneumoniae; strain C7, With Tween80 | K. pneumoniae; strain C7, Without Tween80 | K. pneumoniae; strain C27, With Tween80 | K. pneumoniae; strain C27, Without Tween80 | P. mirabilis; With Tween80 | P. mirabilis; Without Tween80
0.25 µg/mL: E. cloacae; strain 38A10, With Tween80 | E. cloacae; strain 38A10, Without Tween80 | E. cloacae; strain C129, With Tween80 | E. cloacae; strain C129, Without Tween80 | E. cloacae; strain C144, Without Tween80 | A. baumannii; strain 38B9, With Tween80 | C. freundii; strain C136, With Tween80 | E. coli; strain ATCC 25922, Without Tween80 | E. coli; strain C140, Without Tween80 | K. pneumoniae; strain 36A4, With Tween80 | K. pneumoniae; strain 36A4, Without Tween80 | K. pneumoniae; strain C112, With Tween80 | K. pneumoniae; strain C112, Without Tween80 | K. pneumoniae; strain C130, Without Tween80 | K. pneumoniae; strain C132, Without Tween80 | P. aeruginosa; strain 38J8, With Tween80 | P. aeruginosa; strain C111, With Tween80 | P. aeruginosa; strain C131, With Tween80
64 µg/mL: K. pneumoniae; strain 12E2, With Tween80 | K. pneumoniae; strain 12E2, Without Tween80 | K. pneumoniae; strain 13G2, With Tween80 | K. pneumoniae; strain 13G2, Without Tween80 | K. pneumoniae; strain C1, With Tween80 | K. pneumoniae; strain C11, With Tween80 | K. pneumoniae; strain C12, With Tween80 | K. pneumoniae; strain C16, With Tween80 | K. pneumoniae; strain C22, With Tween80 | K. pneumoniae; strain C22, Without Tween80 | K. pneumoniae; strain C25, Without Tween80 | K. pneumoniae; strain Sa, With Tween80 | K. pneumoniae; strain Sa, Without Tween80 | K. pneumoniae; strain T1b, With Tween80 | K. pneumoniae; strain T1b, Without Tween80 | K. oxytoca; With Tween80 | K. oxytoca; Without Tween80
0.5 µg/mL: A. baumannii; strain 38B9, Without Tween80 | A. baumannii; strain C105, Without Tween80 | C. freundii; strain 38B2, With Tween80 | C. freundii; strain 38B2, Without Tween80 | C. freundii; strain C136, Without Tween80 | K. pneumoniae; strain 36A7, With Tween80 | K. pneumoniae; strain 36A7, Without Tween80 | K. pneumoniae; strain 38B7, With Tween80 | K. pneumoniae; strain C115, Without Tween80 | K. pneumoniae; strain C130, With Tween80 | K. pneumoniae; strain C132, With Tween80 | P. aeruginosa; strain ATCC 27853, Without Tween80 | P. aeruginosa; strain C133, With Tween80
8 µg/mL: E. coli; strain 27563, With Tween80 | E. coli; strain 27837, With Tween80 | E. coli; strain 27837, Without Tween80 | E. coli; strain 27850, With Tween80 | E. coli; strain 27850, Without Tween80 | H. alvei; Without Tween80 | K. pneumoniae; strain AF1b, With Tween80 | K. pneumoniae; strain AF1b, Without Tween80
1 µg/mL: P. aeruginosa; strain 38J8, Without Tween80 | P. aeruginosa; strain C111, Without Tween80 | P. aeruginosa; strain C131, Without Tween80 | P. aeruginosa; strain C133, Without Tween80
32 µg/mL: S. maltophilia; strain SmA51, With Tween80 | S. maltophilia; strain SmA51, Without Tween80 | K. pneumoniae; strain 18J1, With Tween80 | K. pneumoniae; strain 18J1, Without Tween80 | K. pneumoniae; strain 1118, With Tween80 | K. pneumoniae; strain 1118, Without Tween80 | K. pneumoniae; strain 1515, With Tween80 | K. pneumoniae; strain 1515, Without Tween80 | K. pneumoniae; strain C3, Without Tween80 | K. pneumoniae; strain C16, Without Tween80 | K. pneumoniae; strain C25, With Tween80 | K. pneumoniae; strain T4, With Tween80 | K. pneumoniae; strain T4, Without Tween80 | K. pneumoniae; strain T5, With Tween80 | K. pneumoniae; strain T5, Without Tween80
16 µg/mL: E. cloacae; strain C28, With Tween80 | E. cloacae; strain C28, Without Tween80 | E. coli; strain 27563, Without Tween80 | H. alvei; With Tween80 | K. pneumoniae; strain C3, With Tween80
0.125 µg/mL: E. coli; strain Eco OmpC-OmpF-, Without Tween80 | K. pneumoniae; strain Kp OmpK3 5-OmpK3 6-, Without Tween80
4 µg/mL: E. coli; strain 27852, With Tween80 | E. coli; strain 27852, Without Tween80 | E. coli; strain 30742, With Tween80 | E. coli; strain 30742, Without Tween80
0.12 µg/mL: E. cloacae; strain C144, With Tween80 | A. baumannii; strain C105, With Tween80 | E. coli; strain 36A6, With Tween80 | E. coli; strain 36A6, Without Tween80 | E. coli; strain 36D7, With Tween80 | E. coli; strain 36D7, Without Tween80 | E. coli; strain 38D6, With Tween80 | E. coli; strain 38D6, Without Tween80 | E. coli; strain ATCC 25922, With Tween80 | E. coli; strain C140, With Tween80 | E. coli; strain Eco OmpC-OmpF-, With Tween80 | K. pneumoniae; strain 36A5, With Tween80 | K. pneumoniae; strain 36A5, Without Tween80 | K. pneumoniae; strain 38B7, Without Tween80 | K. pneumoniae; strain C115, With Tween80 | K. pneumoniae; strain Kp OmpK3 5-OmpK3 6-, With Tween80 | E. aerogenes; With Tween80 | E. aerogenes; Without Tween80 | P. aeruginosa; strain ATCC 27853, With Tween80
